Measured values taken from US9314026B2, “Heterocyclylpyri(mi)dinylpyrazole” (Bayer Intellectual Property GmbH, priority 2011, dated 2016).

How the values were obtained:
Venturia inaequalis = assay: Venturia test (apples)/preventive; format: in vivo; conditions: 100 ppm of active ingredient, preventive, evaluated 10 days after inoculation
Method: (§1) Venturia Test (Apples)/Preventive Solvent: 24.5 parts by weight of acetone • 24.5 parts by weight of dimethylacetamide Emulsifier: 1 part by weight of alkylaryl polyglycol ether To produce a suitable preparation of active compound, 1 part by weight of active compound is mixed with the stated amounts of solvent and emulsifier, and the concentrate is diluted with water to the desired concentration. To test for preventive activity, young plants are sprayed with the preparation of active compound at the stated rate of application.

Puccinia recondita = assay: Puccinia test (wheat)/preventive; format: in vivo; conditions: 500 ppm of active ingredient, preventive, evaluated 7-9 days after inoculation, read-out: efficacy
Method: (§2) Puccinia Test (Wheat)/Preventive Solvent: 49 parts by weight of N,N-Dimethylformamide Emulsifier: 1 part by weight of Alkylarylpolyglycolether To produce a suitable preparation of active compound, 1 part by weight of active compound is mixed with the stated amounts of solvent and emulsifier, and the concentrate is diluted with water to the desired concentration. To test for preventive activity, young plants are sprayed with the preparation of active compound at the stated rate of application. One day after this treatment, the plants are inoculated with an aqueous spore suspension of Puccinia recondita.

Plasmopara viticola = assay: Plasmopara test (grapevines)/preventive; format: in vivo; conditions: 100 ppm of active ingredient, preventive, evaluated 6 days after inoculation
Method: as §1, with “Plasmopara” for “Venturia”, “(Grapevines)/Preventive” for “(Apples)/Preventive”, “application. […] The plants are then misted and placed for 1 day in an incubation cabinet.” for “application.”

[1] = determination of the log P values by HPLC on a reverse phase column (C18), EEC-Directive 79/831 Annex V.A8; format: physicochemical
How it was run: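 Log P determined per EEC-Directive 79/831 Annex V.A8 by reverse-phase (C18) HPLC (methods A, B) or UPLC (method C), with mass detection.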

Botrytis cinerea = assay: Botrytis test (beans)/preventive; format: in vivo; conditions: 48 h, 100 ppm of active ingredient, preventive, size of lesions evaluated 2 days after inoculation, read-out: efficacy
Method: as §1, with “Botrytis” for “Venturia”, “(Beans)/Preventive” for “(Apples)/Preventive”, “compound. After” for “compound at”, “spray coating has dried on, 2 small pieces” for “stated rate”, “agar covered with growth of Botrytis cinerea are placed on each leaf.” for “application.”

Alternaria solani = assay: Alternaria test (tomato)/preventive; format: in vivo; conditions: 168 h, 500 ppm of active ingredient, preventive, evaluated 7 days after inoculation, read-out: efficacy
Method: as §2, with “Alternaria” for “Puccinia”, “(Tomato)/Preventive” for “(Wheat)/Preventive”, “Alternaria solani. […] Then the plants are placed in an incubation cabinet at approximately 20° C. and a relative atmospheric humidity of 96%.” for “Puccinia recondita.”

Septoria tritici = assay: Septoria tritici-test (wheat)/preventive; format: in vivo; conditions: 500 ppm of active ingredient, preventive, evaluated 21 days after inoculation
Method: Septoria tritici-Test (Wheat)/Preventive Solvent: 49 parts by weight of n,n-dimethylacetamid Emulsifier: 1 part by weight of alkylaryl polyglycol ether To produce a suitable preparation of active compound, 1 part by weight of active compound or active compound combination is mixed with the stated amounts of solvent and emulsifier, and the concentrate is diluted with water to the desired concentration. To test for preventive activity, young plants are sprayed with the preparation of active compound or active compound combination at the stated rate of application. After the spray coating has been dried, the plants are sprayed with a spore suspension of Septoria tritici.

Phytophthora infestans = assay: whole plant or invertebrate; format: in vivo; conditions: 72 h, read-out: efficacy
Fusarium graminearum = assay: whole plant or invertebrate; format: in vivo; conditions: in Hordeum vulgare, 120 h, read-out: efficacy
Pyrenophora teres = assay: Pyrenophora test (barley)/preventive; format: in vivo; conditions: 500 ppm of active ingredient, preventive, evaluated 7-9 days after inoculation, read-out: efficacy
Method: as §2, with “Pyrenophora” for “Puccinia”, “(Barley)/Preventive” for “(Wheat)/Preventive”, “Pyrenophora teres.” for “Puccinia recondita.”

Pyricularia oryzae = assay: whole plant or invertebrate; format: in vivo; conditions: 168 h, read-out: efficacy
Sphaerotheca fuliginea = assay: Sphaerotheca test (cucumber)/preventive; format: in vivo; conditions: Podosphaera fuliginea, 168 h, 500 ppm of active ingredient, preventive, evaluated 7 days after inoculation, 0% = untreated control, 100% = no disease, read-out: efficacy
Method: as §2, with “Sphaerotheca” for “Puccinia”, “(Cucumber)/Preventive” for “(Wheat)/Preventive”, “Sphaerotheca fuliginea.” for “Puccinia recondita.”

[2] = system: Fusarium nivale (var. majus); assay: Fusarium nivale (var. majus)-test (wheat)/preventive; format: in vivo; conditions: Microdochium nivale, 120 h, 500 ppm of active ingredient, preventive, evaluated 5 days after inoculation, read-out: efficacy
Method: Fusarium nivale (Var. Majus)-Test (Wheat)/Preventive Solvent: 49 parts by weight of n,n-dimethylacetamid Emulsifier: 1 part by weight of alkylaryl polyglycol ether To produce a suitable preparation of active compound, 1 part by weight of active compound or active compound combination is mixed with the stated amounts of solvent and emulsifier, and the concentrate is diluted with water to the desired concentration. To test for preventive activity, young plants are sprayed with the preparation of active compound or active compound combination at the stated rate of application. After the spray coating has been dried, the plants are slightly injured by using a sandblast and afterwards they are sprayed with a conidia suspension of Fusarium nivale (var. majus).

Leptosphaeria nodorum = assay: Leptosphaeria test (wheat)/preventive; format: in vivo; conditions: Parastagonospora nodorum, 500 ppm of active ingredient, preventive, evaluated 7-9 days after inoculation, read-out: efficacy
Method: as §2, with “Leptosphaeria Test (Wheat)/Preventive” for “Puccinia Test (Wheat)/Preventive”, “sprayed with a preparation of” for “sprayed with the preparation of”, “suspension of Leptosphaeria nodorum.” for “suspension of Puccinia recondita.”

Row | SMILES | efficacy (Venturia inaequalis) | pest or weed control at 500 ppm (Puccinia recondita) | efficacy (Plasmopara viticola) | chromatographic logP [1] | pest or weed control at 100 ppm (Botrytis cinerea) | pest or weed control at 500 ppm (Alternaria solani) | efficacy (Septoria tritici) | pest or weed control at 100 ppm (Phytophthora infestans) | pest or weed control at 500 ppm (Fusarium graminearum) | pest or weed control at 500 ppm (Pyrenophora teres) | pest or weed control at 500 ppm (Pyricularia oryzae) | pest or weed control at 500 ppm (Sphaerotheca fuliginea) | pest or weed control at 500 ppm [2] | pest or weed control at 500 ppm (Leptosphaeria nodorum)
1 | CCC(=O)N(C(=O)CC)c1cc(-c2c(-c3ccc(F)cc3)nn3c2CCC3)ccn1 [Example 7, N-{4-[2-(4-fluorophenyl)-5,6-dihydro-4H-pyrrolo[1,2-b]pyrazol-3-yl]pyridin-2-yl}-N-propionylpropanamide] | 100% | 95% | 100% | 2.81 | 99% | 90% | 86% | 95% | 92% | 95% | 70% | 98% | 100% | 90%
2 | CC(=O)N(C(C)=O)c1cc(-c2c(-c3ccc(F)cc3)nn3c2CCCC3)ccn1 [Example 1, N-acetyl-N-{4-[2-(4-fluorophenyl)-4,5,6,7-tetrahydropyrazolo[1,5-a]pyridin-3-yl]pyridin-2-yl}acetamide] | – | 100% | 75% | 2.42 | 88% | 100% | 100% | 94% | 100% | 95% | 80% | 94% | 100% | 95%
3 | CCOC(=O)N(C(=O)C1CC1)c1cc(-c2c(-c3ccc(F)cc3)nn3c2CCC3)ccn1 [Example 11, ethyl (cyclopropylcarbonyl){4-[2-(4-fluorophenyl)-5,6-dihydro-4H-pyrrolo[1,2-b]pyrazol-3-yl]pyridin-2-yl}carbamate] | – | 100% | 90% | 2.78 | 74% | 95% | – | 86% | – | 95% | 70% | 95% | – | 95%
4 | CCC(=O)N(C(C)=O)c1cc(-c2c(-c3ccc(F)cc3)nn3c2CCC3)ccn1 [Example 5, N-acetyl-N-{4-[2-(4-fluorophenyl)-5,6-dihydro-4H-pyrrolo[1,2-b]pyrazol-3-yl]pyridin-2-yl}propanamide] | 99% | 100% | 94% | 2.43 | 100% | 90% | 86% | 83% | 92% | 100% | 95% | 100% | 100% | 95%
5 | CCC(=O)N(C(C)=O)c1cc(-c2c(-c3ccc(F)cc3)nn3c2CCC3C)ccn1 (stereo not drawn) [Example 6, N-acetyl-N-{4-[2-(4-fluorophenyl)-6-methyl-5,6-dihydro-4H-pyrrolo[1,2-b]pyrazol-3-yl]pyridin-2-yl}propanamide] | 98% | 100% | 94% | 2.78 | 89% | 70% | 86% | 91% | 83% | 100% | 90% | 95% | 100% | 95%
6 | CCC(=O)N(C(=O)C1CC1)c1cc(-c2c(-c3ccc(F)cc3)nn3c2CCC3)ccn1 [Example 9, N-{4-[2-(4-fluorophenyl)-5,6-dihydro-4H-pyrrolo[1,2-b]pyrazol-3-yl]pyridin-2-yl}-N-propionylcyclopropanecarboxamide] | 100% | 100% | 95% | 2.87 | 96% | – | – | 79% | – | 95% | 90% | 100% | – | 95%
